Measured values: patent US7323447B2, “Hepatitis C virus inhibitors” (Bristol-Myers Squibb Company, priority 2005, dated 2008)

Assays:
[1] = molecular target: T1, HCV NS3/4A protease complex (BMS strain) (UniProt P27958); test: FRET peptide assay to monitor HCV NS3/4A proteolytic activity, BMS strain; assay type: biochemical, Hepatitis C virus (genotype 1a); details: read-out: IC50 Range; HCV NS3/4A enzyme assay; Table 1
T1 construct: other: HCV NS3/4A enzyme assay; said of H77 and J4L6S; fused on or other part: Three-lysine solubilising tail at the NS4A C-terminus and a His tag from pET21b (Ni-NTA purification), for the H77 and J4L6S constructs
Method in brief: (§1)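 Recombinant NS3/4A (BMS strain, genotype 1a, >90% pure) cleaving FRET depsipeptide RET S1 (EDANS/DABCYL) at 2 μM; enzyme 2-3 nM (300 pM with 50 μg/ml BSA for sensitive runs). Buffer 50 mM HEPES pH 7.5, 0.15 M NaCl, 0.1% Triton, 15% glycerol, 10 mM βME; fluorescence followed in real time.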

[2] = molecular target: T2, HCV NS3/4A protease complex (BMS strain) (UniProt P27958, species not given/STRAIN_BMS); test: as above; assay type: biochemical, Hepatitis C virus (genotype 1a); details: read-out: IC50 against the NS3/4A BMS strain in the enzyme assay; BMS strain
T2 construct: other: BMS strain; said of H77 and J4L6S; These are given only for the H77 and J4L6S constructs
Method in brief: as §1

T1 sequence (P27958 1027-1657, one chain of several): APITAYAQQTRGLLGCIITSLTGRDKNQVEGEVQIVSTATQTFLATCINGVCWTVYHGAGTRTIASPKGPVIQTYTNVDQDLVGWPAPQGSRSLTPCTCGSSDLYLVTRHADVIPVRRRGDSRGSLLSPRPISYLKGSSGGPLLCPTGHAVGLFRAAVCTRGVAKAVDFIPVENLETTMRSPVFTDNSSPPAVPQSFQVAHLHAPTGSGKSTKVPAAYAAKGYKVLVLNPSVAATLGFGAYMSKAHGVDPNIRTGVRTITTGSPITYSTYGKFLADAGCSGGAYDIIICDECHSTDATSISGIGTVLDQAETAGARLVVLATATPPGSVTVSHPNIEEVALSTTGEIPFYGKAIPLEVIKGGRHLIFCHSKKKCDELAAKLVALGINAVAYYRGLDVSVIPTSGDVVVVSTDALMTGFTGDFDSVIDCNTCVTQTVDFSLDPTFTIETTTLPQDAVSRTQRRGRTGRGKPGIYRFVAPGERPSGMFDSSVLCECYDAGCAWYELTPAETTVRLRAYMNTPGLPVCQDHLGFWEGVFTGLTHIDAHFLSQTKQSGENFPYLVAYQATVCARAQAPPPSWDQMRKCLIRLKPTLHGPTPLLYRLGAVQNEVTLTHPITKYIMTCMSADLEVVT
T2 sequence (P27958 1027-1657, stated change not applied, one chain of several): as the sequence (P27958 1027-1657, one chain of several) above

In the case of `C=C[C@@H]1C[C@]1(NC(=O)[C@@H]1C[C@@H](OC(=O)N2Cc3cccc(F)c3C2)CN1C(=O)[C@@H](OC(=O)NC(C)(C)C)C(C)(C)C)C(=O)NS(=O)(=O)C1CC1` [Example 56Compound 56], the IC50 [1] is reported as < 100 nM and the IC50 [2] is reported as 99 nM.
